Assay results reported in patent US12509454B2, “Thiadiazolyl derivatives” (IDEAYA Biosciences, Inc., priority 2019, dated 2025).

Biological target: Pol theta (1-899) (Homo sapiens (Human), UniProt O75417)
Test: Pol theta ATPase activity, NADH oxidation-coupled enzymatic assay
Type: biochemical
Conditions: Pol theta (1-899) 10 nM, ATP, dT50 ssDNA, absorbance 340 nm, 10-point dilution series; read-out: ATPase NADH coupling:Standard Screening:hPolQ IC50
Summary of the method: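 Pol theta (1-899), 10 nM, preincubated 15 min at RT with 10-point compound series in Tris pH 7.80/KCl/MgCl2 buffer, then given 100 μM ATP plus 300 nM dT50 ssDNA with PK/LDH-coupled NADH oxidation. A340 followed for 30 min; rate slopes fitted with a four-parameter model for IC50.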

Pol theta (1-899), sequence (O75417 1-899): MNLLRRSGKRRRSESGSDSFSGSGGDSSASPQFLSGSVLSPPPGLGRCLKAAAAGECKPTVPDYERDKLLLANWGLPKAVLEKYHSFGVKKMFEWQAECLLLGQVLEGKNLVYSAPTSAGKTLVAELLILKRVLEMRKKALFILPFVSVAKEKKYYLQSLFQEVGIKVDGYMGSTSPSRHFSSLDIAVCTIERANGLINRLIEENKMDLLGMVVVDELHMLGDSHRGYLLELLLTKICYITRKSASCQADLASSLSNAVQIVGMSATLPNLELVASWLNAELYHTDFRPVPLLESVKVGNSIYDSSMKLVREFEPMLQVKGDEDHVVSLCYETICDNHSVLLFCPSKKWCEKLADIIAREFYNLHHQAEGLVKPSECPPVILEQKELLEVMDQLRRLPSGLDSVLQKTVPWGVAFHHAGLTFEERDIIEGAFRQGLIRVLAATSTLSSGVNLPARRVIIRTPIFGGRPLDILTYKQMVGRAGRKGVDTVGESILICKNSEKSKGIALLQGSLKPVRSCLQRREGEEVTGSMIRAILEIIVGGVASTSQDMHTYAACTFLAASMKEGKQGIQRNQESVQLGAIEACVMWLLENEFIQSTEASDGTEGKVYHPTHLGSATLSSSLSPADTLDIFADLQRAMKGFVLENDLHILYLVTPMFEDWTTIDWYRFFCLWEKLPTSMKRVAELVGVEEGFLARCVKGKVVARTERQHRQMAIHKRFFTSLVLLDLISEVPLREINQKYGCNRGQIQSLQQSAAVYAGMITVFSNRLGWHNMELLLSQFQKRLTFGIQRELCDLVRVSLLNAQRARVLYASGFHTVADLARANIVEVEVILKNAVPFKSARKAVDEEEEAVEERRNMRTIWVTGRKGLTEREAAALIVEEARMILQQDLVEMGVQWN

SMILES	IC50 [nM]
CN(C)C(=O)c1cc(N2CCOCC2)c(C(=O)Nc2nnc(OCc3ccc(Cl)cc3)s2)cn1 [Example 73, N^5-(5-((4-chlorobenzyl)oxy)-1,3,4-thiadiazol-2-yl)-N2,N2-dimethyl-4-morpholinopyridine-2,5-dicarboxamide]	1000 to 10000
O=C(Nc1nnc(OCc2ccc(Cl)cn2)s1)c1cncn1-c1ccccn1 [Example 38, N-(5-((5-chloropyridin-2-yl)methoxy)-1,3,4-thiadiazol-2-yl)-1-(pyridin-2-yl)-1H-imidazole-5-carboxamide]	1000 to 10000
O=C(O)c1cc(N2CCOCC2)c(C(=O)Nc2nnc(OCc3ccc(Cl)cc3)s2)cn1 [Example 84, 5-((5-((4-chlorobenzyl)oxy)-1,3,4-thiadiazol-2-yl)carbamoyl)-4-morpholinopicolinic acid]	1000 to 10000
C[C@@H]1C(=O)NCCN1c1cnccc1C(=O)Nc1nnc(OCc2ccc(Cl)cn2)s1 (racemic) [Example 179, (S)—N-(5-((5-chloropyridin-2-yl)methoxy)-1,3,4-thiadiazol-2-yl)-3-(2-methyl-3-oxopiperazin-1-yl)isonicotinamide and (R)—N-(5-((5-chloropyridin-2-yl)methoxy)-1,3,4-thiadiazol-2-yl)-3-(2-methyl-3-oxopiperazin-1-yl)isonicotinamide]	≤ 200
O=C(Nc1nnc(OCc2ccc(Cl)cc2)s1)c1cccnc1N1CCOCC1 [Example 2, N-(5-((4-chlorobenzyl)oxy)-1,3,4-thiadiazol-2-yl)-2-morpholinonicotinamide]	500 to 1000
O=C1CCN(c2ncccc2C(=O)Nc2nnc(OCc3ccc(Cl)cc3)s2)CCN1 [Example 61, N-(5-((4-chlorobenzyl)oxy)-1,3,4-thiadiazol-2-yl)-2-(5-oxo-1,4-diazepan-1-yl)nicotinamide]	500 to 1000
O=C(Nc1nnc(OCc2ccc(Cl)cc2)s1)c1cccnc1N1CCN2C(=O)CC[C@@H]2C1 (single isomer, unassigned) [Example 70, (R)—N-(5-((4-chlorobenzyl)oxy)-1,3,4-thiadiazol-2-yl)-2-(6-oxohexahydropyrrolo-[1,2-a]pyrazin-2(1H)-yl)nicotinamide or (S)—N-(5-((4-chlorobenzyl)oxy)-1,3,4-thiadiazol-2-yl)-2-(6-oxohexahydropyrrolo[1,2-a]pyrazin-2(1H)-yl)nicotinamide]	500 to 1000
O=C(Nc1nnc(OCc2ccc(Cl)cc2)s1)c1cccnc1N1CCN2C(=O)CC[C@H]2C1 (single isomer, unassigned) [Example 69, (R)—N-(5-((4-chlorobenzyl)oxy)-1,3,4-thiadiazol-2-yl)-2-(6-oxohexahydropyrrolo[1,2-a]pyrazin-2(1H)-yl)nicotinamide or (S)—N-(5-((4-chlorobenzyl)oxy)-1,3,4-thiadiazol-2-yl)-2-(6-oxohexahydropyrrolo[1,2-a]pyrazin-2(1H)-yl)nicotinamide]	1000 to 10000
COc1cc(N2CCOCC2)c(C(=O)Nc2nnc(OCc3ccc(Cl)cc3)s2)cn1 [Example 75, N-(5-((4-chlorobenzyl)oxy)-1,3,4-thiadiazol-2-yl)-6-methoxy-4-morpholino-nicotinamide]	500 to 1000
O=C(Nc1nnc(OCc2ccc(Cl)cc2)s1)c1cccnc1N1CCCOCC1 [Example 6, N-(5-((4-chlorobenzyl)oxy)-1,3,4-thiadiazol-2-yl)-2-(1,4-oxazepan-4-yl)nicotinamide]	200 to 500
O=C(Nc1nnc(OCc2ccc(Cl)nc2)s1)c1cccnc1N1CCOCC1 [Example 8, N-(5-((6-chloropyridin-3-yl)methoxy)-1,3,4-thiadiazol-2-yl)-2-morpholinonicotinamide]	1000 to 10000
COc1ccccc1-c1cc(C)ncc1C(=O)Nc1nnc(O[C@H](C)c2ccc(Cl)cc2)s1 [Example 201, N-[5-[(1R)-1-(4-chlorophenyl)ethoxy]-1,3,4-thiadiazol-2-yl]-4-(2-methoxyphenyl)-6-methylpyridine-3-carboxamide]	500 to 1000
COc1ccc(-n2cncc2C(=O)Nc2nnc(OCc3ccc(Cl)cc3)s2)cc1 [Example 12, N-(5-((4-chlorobenzyl)oxy)-1,3,4-thiadiazol-2-yl)-1-(4-methoxyphenyl)-1H-imidazole-5-carboxamide]	200 to 500
COc1ccccc1-c1cc(C)ncc1C(=O)Nc1nnc(OCc2ncccc2F)s1 [Example 210, N-[5-[(3-fluoropyridin-2-yl)methoxy]-1,3,4-thiadiazol-2-yl]-4-(2-methoxyphenyl)-6-methylpyridine-3-carboxamide]	≤ 200
O=C(Nc1nnc(OCc2ccc(Cl)cc2)s1)c1cncn1C1CCOCC1 [Example 55, N-(5-((4-chlorobenzyl)oxy)-1,3,4-thiadiazol-2-yl)-1-(tetrahydro-2H-pyran-4-yl)-1H-imidazole-5-carboxamide]	1000 to 10000
CCc1ccccc1-c1cnccc1C(=O)Nc1nnc(OCc2ccc(Cl)cc2)s1 [Example 135, N-[5-[(4-chlorophenyl)methoxy]-1,3,4-thiadiazol-2-yl]-3-(2-ethylphenyl)pyridine-4-carboxamide]	≤ 200
COc1cccc(F)c1-c1cnccc1C(=O)Nc1nnc(OCc2ccc(Cl)cc2)s1 [Example 124, N-(5-((4-chlorobenzyl)oxy)-1,3,4-thiadiazol-2-yl)-3-(2-fluoro-6-methoxyphenyl)isonicotinamide]	≤ 200
COc1ccccc1-c1cc(C(F)(F)F)ncc1C(=O)Nc1nnc(OCc2ccc(Cl)cc2)s1 [Example 156, N-[5-[(4-chlorophenyl)methoxy]-1,3,4-thiadiazol-2-yl]-4-(2-methoxyphenyl)-6-(trifluoromethyl)pyridine-3-carboxamide]	≤ 200
Cn1cc(-c2ncccc2C(=O)Nc2nnc(OCc3ccc(Cl)cc3)s2)ccc1=O [Example 80, N-(5-((4-chlorobenzyl)oxy)-1,3,4-thiadiazol-2-yl)-1′-methyl-6′-oxo-1′,6′-dihydro-[2,3′-bipyridine]-3-carboxamide]	200 to 500
COc1ccccc1-c1ccncc1C(=O)Nc1nnc(OCc2ccc(Br)cn2)s1 [Example 97, N-(5-((5-bromopyridin-2-yl)methoxy)-1,3,4-thiadiazol-2-yl)-4-(2-methoxy-phenyl)nicotinamide]	≤ 200
COc1ccc(C#N)cc1-c1cnccc1C(=O)Nc1nnc(OCc2ccc(Cl)cc2)s1 [Example 123, N-(5-((4-chlorobenzyl)oxy)-1,3,4-thiadiazol-2-yl)-3-(5-cyano-2-methoxyphenyl)isonicotinamide]	≤ 200
Cc1cc(-c2c(F)cccc2OC(F)F)c(C(=O)Nc2nnc(OCc3ccc(Cl)cc3)s2)cn1 [Example 189, N-(5-((4-chlorobenzyl)oxy)-1,3,4-thiadiazol-2-yl)-4-(2-(difluoromethoxy)-6-fluorophenyl)-6-methylnicotinamide]	≤ 200

Second part, the molecule after the results:

IC50 [nM]	SMILES
≤ 200	O=C(Nc1nnc(OCc2ccc(Cl)cc2)s1)c1ccncc1-c1c(F)cccc1OC(F)F [Example 109, N-(5-((4-chlorobenzyl)oxy)-1,3,4-thiadiazol-2-yl)-3-(2-(difluoromethoxy)-6-fluorophenyl)isonicotinamide]
≤ 200	Cc1n[nH]c(C)c1-c1cnccc1C(=O)Nc1nnc(OCc2ccc(Cl)cc2)s1 [Example 140, N-[5-[(4-chlorophenyl)methoxy]-1,3,4-thiadiazol-2-yl]-3-(3,5-dimethyl-1H-pyrazol-4-yl)pyridine-4-carboxamide]
≤ 200	COc1cnccc1-c1cc(C)ncc1C(=O)Nc1nnc(OCc2ccc(Cl)cn2)s1 [Example 194, N-(5-((5-chloropyridin-2-yl)methoxy)-1,3,4-thiadiazol-2-yl)-3′-methoxy-6-methyl-[4,4′-bipyridine]-3-carboxamide]
≤ 200	COc1ccccc1-c1nc(C#N)ccc1C(=O)Nc1nnc(OCc2ccc(Cl)cc2)s1 [Example 71, N-(5-((4-chlorobenzyl)oxy)-1,3,4-thiadiazol-2-yl)-6-cyano-2-(2-methoxyphenyl)-nicotinamide]
≤ 200	COc1ccccc1-c1cc(C)ncc1C(=O)Nc1nnc(OCc2ccc(Cl)c3[nH]ncc23)s1 [Example 213, N-[5-[(7-chloro-1H-indazol-4-yl)methoxy]-1,3,4-thiadiazol-2-yl]-4-(2-methoxyphenyl)-6-methylpyridine-3-carboxamide]
≤ 200	COc1c(C#N)cccc1-c1cnccc1C(=O)Nc1nnc(OCc2ccc(Cl)cc2)s1 [Example 159, N-(5-((4-chlorobenzyl)oxy)-1,3,4-thiadiazol-2-yl)-3-(3-cyano-2-methoxyphenyl)isonicotinamide]
≤ 200	O=C(Nc1nnc(OCc2ccc(Cl)cc2)s1)c1ccncc1-c1cccc2c1OC(F)(F)O2 [Example 121, N-(5-((4-chlorobenzyl)oxy)-1,3,4-thiadiazol-2-yl)-3-(2,2-difluorobenzo[d][1,3]dioxol-4-yl)isonicotinamide]
≤ 200	COc1cccc(F)c1-c1cc(C)ncc1C(=O)Nc1nnc(OCc2ccc(Cl)cc2)s1 [Example 183, N-(5-((4-chlorobenzyl)oxy)-1,3,4-thiadiazol-2-yl)-4-(2-fluoro-6-methoxyphenyl)-6-methylnicotinamide]
≤ 200	Cc1cc(-c2ccccc2OC(F)F)c(C(=O)Nc2nnc(OCc3ccc(Cl)cn3)s2)cn1 [Example 115, N-[5-[(5-chloropyridin-2-yl)methoxy]-1,3,4-thiadiazol-2-yl]-4-[2-(difluoromethoxy)phenyl]-6-methylpyridine-3-carboxamide]
≤ 200	O=C(Nc1nnc(OCc2ccc(Cl)cc2)s1)c1cnccc1-c1ccccc1OC(F)(F)F [Example 130, N-(5-((4-chlorobenzyl)oxy)-1,3,4-thiadiazol-2-yl)-4-(2-(trifluoromethoxy)phenyl)nicotinamide]
≤ 200	O=C(Nc1nnc(OCc2ccc(Cl)cc2)s1)c1ccncc1-c1ccccc1CCO [Example 171, N-(5-((4-chlorobenzyl)oxy)-1,3,4-thiadiazol-2-yl)-3-(2-(2-hydroxyethyl)phenyl)isonicotinamide]
